Where a name gives a salt, the structure may show the parent alone.
What was measured:
Assay type in all cases: in vivo, rat
[1] = test system: Obese, insulin resistant ZF (fa/fa) rats; assay: Pharmacological Study Report I: deuterated glucose disposal test (2H-GDT); settings: 4 weeks, Compound B 40 mg/kg/day in chow
Description: (§1) Obese, insulin resistant ZF (fa/fa) rats, which are treated from the age of 8-12 weeks, were used as IR model. Rats were housed with a 12-h light/dark cycle and free access to food and water unless otherwise noted. Studies were approved by the Institutional Animal Care and Use Committee. There were a total of 18 animals in the study (8 week-old males, provided by Charles River). Animals were randomized into 3 groups (vehicle group, Compound A group, Compound B group, n=6 per group) based on random glucose level at the beginning of the study: • Group 1: ZF rats (fa/fa) (n=6), compound A (150 mg/kg via gavage) • Group 2: ZF rats (fa/fa) (n=6), compound B (40 mg/kg/day as admixture to the chow) • Group 3: ZF rats (fa/fa) (n=6), vehicle treatment (control chow, vehicle gavage)
(§2) Group 1 and 3 animals were treated with compound A or vehicle (water) for 4 weeks (from age 8-12 weeks) via oral gavage, twice daily. Chow containing compound B was fed to Group 2 ad lib. Group 1 and Group 3 were fed with chow without compound B ad lib.
Rats underwent a 4 hour fast. […] At t=0, the blood glucose concentrations were determined with a glucometer, and a blood sample was obtained for determination of base line insulin and H2O^18 dilution. […]
One hundred micro liter aliquots of plasma samples inside the cape of an inverted vial were placed in a heating blocked filled with glass beads at 70° C. overnight and the water distillate inside the vial was collected. The deuterium and oxygen-18 isotope ratios of the blood of plasma samples were determined using a Thermo Finnigan High Temperature Conversion/Elemental Analyzer coupled with a Thermo Finnigan MAT 253 IRMS via a Conflo-III Interface. […] The deuterium isotope abundance is first calculated in δ 2H values relative to the international VSMOW standard, and then transformed to APE by using a calibration curve of standards with known enrichments. The ^2H2O enrichment was calculated for rats at 30 min after the glucose load. ^2H2O enrichment was converted to mmoles by multiplying enrichment by the TBW pool size and dividing by 20 (MW ^2H2O). […]

[2] = Pharmacological Study Report I: body weight of ZF (fa/fa) rats during 4 weeks of treatment; settings: age 8-12 weeks, Compound A 150 mg/kg gavage twice daily, Compound B 40 mg/kg/day in chow
Description: as §1, §2

[3] = Pharmacological Study Report II: body weight and food intake; settings: for Average food consumption, Week 1 / Average food consumption, Week 2 / Average food consumption, Week 3 / Average food consumption, Week 4: fa/fa rats, average +/- SD
Description: (§3) Thirty-six obese Zucker fa/fa and six lean Zucker fa/? male rats obtained from Charles River, were housed under normal vivarium conditions on a 12 hour light/dark cycle. The rats were kept two to a cage with food and water available ad lib, except during the weekly, 4 hour fasts. Water continued to be available during these fasts.
(§4) Compound A corresponds to Cariporide. Compound B corresponds to 2-Methyl-4,5-di-(methylsulfonyl)-benzoyl-guanidine hydrochloride hydrate. Compounds A and B were supplied in powder form by Merck Serono. Drugs were incorporated into a pelleted diet (LabDiet, 5001) by Research Diets, Inc (New Brunswick, N.J.) at concentrations of 0.44 g/kg or 0.88 g/kg of diet to yield approximate doses of 40 or 80 mg/kg. The concentration was calculated based on the assumption that a 300 g rat would eat about 30 g/d of chow. The same chow, but without drug, was fed to rats of both the lean and fa/fa control group animals.
(§5) One week prior to the start of the study, all rats were weighed. After a 4 hour fast, a blood sample was obtained for the determination of blood glucose, insulin, and glycosylated hemoglobin levels (HbA1c). Animals were then sorted on the basis of these parameters into the groups listed below. Rats were eight weeks of age at the onset of treatment.
(§6) • 1. ZF rats (fa/fa) (n=6) chow without drug • 2. ZF rats (fa/fa) (n=6) compound A (40 mg/kg/day) • 3. ZF rats (fa/fa) (n=6) compound A (80 mg/kg/day) • 4. ZF rats (fa/fa) (n=6) compound B (40 mg/kg/day) • 5. ZF rats (fa/fa) (n=6) compound B (80 mg/kg/day) • 6. lean Zucker rats (fa/?) (n=6) chow without drug Dosing Regime
(§7) Treatment appropriate chow was continuously available for 4 weeks except during scheduled 4 h fasts conducted once per week.
individual body weights were determined once per week. Average food intake per cage was also determined once per week and the individual rat consumption was calculated by dividing the cage average by 2 (rats housed 2/cage).

[4] = test system: obese Zucker fa/fa rats; assay: Pharmacological Study Report II: HbA1c levels; settings: Mean ± SD; for Base line HbA1c: baseline; for Change in HbA1c: change over the 4 week treatment period; for Week 4 HbA1c: week 4 of treatment
Description: as §3, §4, §5, §6, §7
HbA1c level were determined using a DCA 2000 analyzer (Bayer Healthcare LLC, Elkhart Ind.) prior to beginning the study and again at the end of the 4th week treatment period.

[5] = test system: obese Zucker fa/fa rats; assay: Pharmacological Study Report II: random and fasting (4 h) blood glucose and plasma insulin levels; settings: Mean ± SD; for Change in Insulin (fasting): change over the 4 week treatment period; for Week 4 Insulin (fasting): week 4 of treatment
Description: as §3, §4, §5, §6, §7
Both random and fasting (4 h) blood glucose levels were determined using a hand-held glucometer (OneTouch Ultra, Lifescan, Inc. Milapitas, Calif.) on blood obtained from tail capillary samples. Plasma insulin levels were determined by a rat specific ELISA (Ultra Sensitive Rat Insulin ELISA Kit, Crystal Chem, Inc., Chicago, Ill.). The 4 h fast period started at 9 a.m. and ended after a blood draw at 1 p.m.

## [H]/N=C(\N)NC(=O)c1cc(S(C)(=O)=O)c(S(C)(=O)=O)cc1C [Compound B, 2-Methyl-4,5-di-(methylsulfonyl)-benzoyl-guanidine hydrochloride hydrate]
[1]
  Insulin sensitivity (% 2H2O recovery per insulin AUC), increase compared to pre-treatment values: ~4 fold
[2]
  Body weight, difference among vehicle- and compound-treated groups: no significant differences
[3]; Zucker fa/fa rats, 4 weeks, 40 or 80 mg/kg in chow
  Average weekly food intake vs chow fed fa/fa controls: did not differ significantly
[3]; 40 mg/kg in chow
  Average food consumption, Week 1: 32.1 +/− 3.2 grams
  Average food consumption, Week 2: 33.8 +/− 2.9 grams
  Average food consumption, Week 3: 31.7 +/− 2.9 grams
  Average food consumption, Week 4: 33.6 +/− 4.4 grams
[3]; 80 mg/kg in chow
  Average food consumption, Week 1: 31.8 +/− 1.4 grams
  Average food consumption, Week 2: 32.9 +/− 1.9 grams
  Average food consumption, Week 3: 33.0 +/− 0.7 grams
  Average food consumption, Week 4: 34.0 +/− 2.9 grams
[4]; 40 mg/kg group
  Base line HbA1c: 3.8 ± 0.2%
[4]; 80 mg/kg group
  Base line HbA1c: 4.0 ± 0.4%
[4]; 40 mg/kg
  Change in HbA1c: 0.4 ± 0.2%
[4]; 80 mg/kg
  Change in HbA1c: 0.8 ± 0.7%
[4]; 40 mg/kg in chow
  Week 4 HbA1c: 4.3 ± 0.3%
[4]; 80 mg/kg in chow
  Week 4 HbA1c: 4.8 ± 0.4 %
[5]; 40 mg/kg group
  Baseline Insulin (fasting): 14.7 ± 2.7 ng/mL
[5]; 80 mg/kg group
  Baseline Insulin (fasting): 16.2 ± 11.2 ng/mL
[5]; 40 mg/kg
  Change in Insulin (fasting): -0.2 ± 4.4 ng/mL
[5]; 80 mg/kg
  Change in Insulin (fasting): -3.2 ± 11.2 ng/mL
[5]; 40 mg/kg in chow
  Week 4 Insulin (fasting): 14.5 ± 5.5 ng/mL
[5]; 80 mg/kg in chow
  Week 4 Insulin (fasting): 13.1 ± 8.2 ng/mL
